Data as given in publication PMC8213057, “Targeting ALK2: An Open Science Approach to Developing Therapeutics for the Treatment of Diffuse Intrinsic Pontine Glioma” (Journal of Medicinal Chemistry, 2020).

Assays:
[1] = target: T1, RIPK4 (Homo sapiens, UniProt P57078); details: 1 μM; Run 1, Run 2
T1 sequence (P57078 1-832): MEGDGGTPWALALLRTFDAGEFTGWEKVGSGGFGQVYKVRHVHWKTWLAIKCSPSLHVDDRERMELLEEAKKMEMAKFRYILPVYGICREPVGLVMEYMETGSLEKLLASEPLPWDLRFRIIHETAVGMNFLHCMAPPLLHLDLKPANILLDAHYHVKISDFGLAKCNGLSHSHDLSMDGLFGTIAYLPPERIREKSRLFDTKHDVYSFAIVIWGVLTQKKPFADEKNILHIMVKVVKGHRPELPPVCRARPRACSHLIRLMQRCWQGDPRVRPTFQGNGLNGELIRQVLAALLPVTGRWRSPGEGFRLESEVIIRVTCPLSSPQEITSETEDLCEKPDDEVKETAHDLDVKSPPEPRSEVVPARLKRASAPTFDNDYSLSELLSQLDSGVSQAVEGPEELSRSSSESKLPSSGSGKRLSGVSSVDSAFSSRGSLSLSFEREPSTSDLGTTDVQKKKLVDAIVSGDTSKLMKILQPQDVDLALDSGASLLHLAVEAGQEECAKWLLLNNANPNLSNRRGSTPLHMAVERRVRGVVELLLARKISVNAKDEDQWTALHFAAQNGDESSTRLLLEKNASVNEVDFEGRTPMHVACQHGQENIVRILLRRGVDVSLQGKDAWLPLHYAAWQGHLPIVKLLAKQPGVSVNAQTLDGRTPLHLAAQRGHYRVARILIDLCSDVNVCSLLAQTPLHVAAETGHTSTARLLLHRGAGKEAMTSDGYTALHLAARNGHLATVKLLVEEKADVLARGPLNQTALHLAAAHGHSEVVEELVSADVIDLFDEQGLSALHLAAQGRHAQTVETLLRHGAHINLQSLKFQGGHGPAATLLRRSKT

[2] = target: LYN B (Homo sapiens, UniProt P07948); assay: biochemical; details: read-out: % enzyme activity, 1 μM; Run 1, Run 2
[3] = target: RON/MST1R (Homo sapiens, UniProt Q04912); details: 1 μM; Run 1, Run 2
Chain of RON/MST1R (Q04912 25-1400): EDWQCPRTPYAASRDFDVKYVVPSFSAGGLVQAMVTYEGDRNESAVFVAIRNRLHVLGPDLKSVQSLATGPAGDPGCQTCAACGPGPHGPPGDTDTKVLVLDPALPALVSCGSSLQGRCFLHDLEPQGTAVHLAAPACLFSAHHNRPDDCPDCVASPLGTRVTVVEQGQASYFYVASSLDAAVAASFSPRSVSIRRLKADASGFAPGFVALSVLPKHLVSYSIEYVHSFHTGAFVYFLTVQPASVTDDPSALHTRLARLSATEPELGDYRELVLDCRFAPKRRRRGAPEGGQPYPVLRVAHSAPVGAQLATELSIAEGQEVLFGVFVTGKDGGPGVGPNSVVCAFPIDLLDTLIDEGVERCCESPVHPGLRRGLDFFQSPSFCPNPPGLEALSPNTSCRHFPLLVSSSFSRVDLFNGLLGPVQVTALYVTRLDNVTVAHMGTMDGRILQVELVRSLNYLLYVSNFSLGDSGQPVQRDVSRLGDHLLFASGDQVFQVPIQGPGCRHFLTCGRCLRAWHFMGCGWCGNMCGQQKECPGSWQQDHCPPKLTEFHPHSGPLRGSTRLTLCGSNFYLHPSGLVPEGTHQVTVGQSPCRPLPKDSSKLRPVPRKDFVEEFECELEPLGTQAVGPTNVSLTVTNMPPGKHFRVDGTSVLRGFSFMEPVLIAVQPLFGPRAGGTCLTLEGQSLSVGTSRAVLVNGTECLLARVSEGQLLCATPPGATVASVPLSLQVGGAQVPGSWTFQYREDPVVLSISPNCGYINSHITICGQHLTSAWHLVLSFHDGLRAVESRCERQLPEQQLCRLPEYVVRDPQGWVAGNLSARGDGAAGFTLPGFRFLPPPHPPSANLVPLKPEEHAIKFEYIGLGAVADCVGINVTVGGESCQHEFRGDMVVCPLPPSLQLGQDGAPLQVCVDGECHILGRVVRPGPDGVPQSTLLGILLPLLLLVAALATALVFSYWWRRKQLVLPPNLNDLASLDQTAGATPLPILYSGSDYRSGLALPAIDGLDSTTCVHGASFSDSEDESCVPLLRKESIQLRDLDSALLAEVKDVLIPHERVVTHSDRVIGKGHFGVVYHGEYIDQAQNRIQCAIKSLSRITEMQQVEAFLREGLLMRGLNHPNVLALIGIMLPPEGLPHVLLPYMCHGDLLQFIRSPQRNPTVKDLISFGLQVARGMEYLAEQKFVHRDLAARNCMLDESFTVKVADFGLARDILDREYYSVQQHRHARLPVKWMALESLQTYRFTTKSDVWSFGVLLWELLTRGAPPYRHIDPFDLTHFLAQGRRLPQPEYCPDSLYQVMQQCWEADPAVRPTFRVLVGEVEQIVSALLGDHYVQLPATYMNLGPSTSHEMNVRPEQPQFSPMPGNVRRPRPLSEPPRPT

[4] = target: MLCK/MYLK (Homo sapiens, UniProt Q15746); details: 1 μM; Run 1, Run 2
Chain of MLCK/MYLK (Q15746 whole entry): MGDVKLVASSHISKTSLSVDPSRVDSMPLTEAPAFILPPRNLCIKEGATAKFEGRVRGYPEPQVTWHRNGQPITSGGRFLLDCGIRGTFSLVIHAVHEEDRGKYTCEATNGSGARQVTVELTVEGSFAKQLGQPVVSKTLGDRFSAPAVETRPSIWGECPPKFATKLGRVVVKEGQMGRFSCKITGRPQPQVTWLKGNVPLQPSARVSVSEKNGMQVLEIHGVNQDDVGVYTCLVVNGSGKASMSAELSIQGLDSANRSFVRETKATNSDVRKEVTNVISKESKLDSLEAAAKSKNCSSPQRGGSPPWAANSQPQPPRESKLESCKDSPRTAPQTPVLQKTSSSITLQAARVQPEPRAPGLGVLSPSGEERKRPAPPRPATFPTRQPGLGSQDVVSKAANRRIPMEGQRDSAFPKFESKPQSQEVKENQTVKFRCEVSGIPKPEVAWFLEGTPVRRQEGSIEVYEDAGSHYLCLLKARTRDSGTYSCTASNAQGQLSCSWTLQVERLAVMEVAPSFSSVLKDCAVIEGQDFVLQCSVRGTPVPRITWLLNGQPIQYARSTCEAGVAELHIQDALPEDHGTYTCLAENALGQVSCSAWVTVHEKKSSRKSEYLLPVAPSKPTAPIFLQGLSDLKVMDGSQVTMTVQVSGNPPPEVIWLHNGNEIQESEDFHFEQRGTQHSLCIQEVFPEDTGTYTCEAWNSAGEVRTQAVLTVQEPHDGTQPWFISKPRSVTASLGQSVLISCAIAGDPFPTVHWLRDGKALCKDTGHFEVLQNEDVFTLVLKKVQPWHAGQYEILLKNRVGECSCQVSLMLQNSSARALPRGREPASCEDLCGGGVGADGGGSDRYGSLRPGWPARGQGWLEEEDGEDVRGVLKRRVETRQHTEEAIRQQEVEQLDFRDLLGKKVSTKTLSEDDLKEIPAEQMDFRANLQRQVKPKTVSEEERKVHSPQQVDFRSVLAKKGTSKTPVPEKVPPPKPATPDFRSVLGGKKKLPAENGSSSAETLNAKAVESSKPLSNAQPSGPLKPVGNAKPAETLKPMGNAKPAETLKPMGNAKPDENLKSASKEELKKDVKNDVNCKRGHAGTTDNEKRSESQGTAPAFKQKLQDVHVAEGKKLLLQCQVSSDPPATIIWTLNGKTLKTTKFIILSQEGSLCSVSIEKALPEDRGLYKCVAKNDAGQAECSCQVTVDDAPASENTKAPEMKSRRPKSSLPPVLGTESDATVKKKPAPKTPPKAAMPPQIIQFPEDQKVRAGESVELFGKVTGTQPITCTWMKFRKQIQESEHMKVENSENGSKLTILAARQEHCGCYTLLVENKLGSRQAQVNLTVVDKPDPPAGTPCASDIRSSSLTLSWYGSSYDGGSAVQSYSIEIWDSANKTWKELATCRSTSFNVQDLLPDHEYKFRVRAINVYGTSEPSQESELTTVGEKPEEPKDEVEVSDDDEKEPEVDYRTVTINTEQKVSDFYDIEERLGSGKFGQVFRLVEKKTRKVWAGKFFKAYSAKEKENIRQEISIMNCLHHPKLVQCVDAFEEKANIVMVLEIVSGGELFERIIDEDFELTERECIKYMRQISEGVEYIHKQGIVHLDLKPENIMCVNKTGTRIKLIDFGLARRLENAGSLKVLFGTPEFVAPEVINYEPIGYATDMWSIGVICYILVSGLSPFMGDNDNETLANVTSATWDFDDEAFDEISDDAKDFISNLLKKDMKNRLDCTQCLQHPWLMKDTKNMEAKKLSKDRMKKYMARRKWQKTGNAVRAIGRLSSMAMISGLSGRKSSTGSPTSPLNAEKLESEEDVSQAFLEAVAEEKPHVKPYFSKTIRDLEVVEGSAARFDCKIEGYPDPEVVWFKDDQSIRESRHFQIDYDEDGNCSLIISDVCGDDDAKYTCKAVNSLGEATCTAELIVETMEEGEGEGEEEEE

[5] = target: MRCKa/CDC42BPA (Homo sapiens, UniProt Q5VT25); assay: biochemical; details: read-out: % enzyme activity, 1 μM; Run 1, Run 2
Chain of MRCKa/CDC42BPA (Q5VT25 whole entry): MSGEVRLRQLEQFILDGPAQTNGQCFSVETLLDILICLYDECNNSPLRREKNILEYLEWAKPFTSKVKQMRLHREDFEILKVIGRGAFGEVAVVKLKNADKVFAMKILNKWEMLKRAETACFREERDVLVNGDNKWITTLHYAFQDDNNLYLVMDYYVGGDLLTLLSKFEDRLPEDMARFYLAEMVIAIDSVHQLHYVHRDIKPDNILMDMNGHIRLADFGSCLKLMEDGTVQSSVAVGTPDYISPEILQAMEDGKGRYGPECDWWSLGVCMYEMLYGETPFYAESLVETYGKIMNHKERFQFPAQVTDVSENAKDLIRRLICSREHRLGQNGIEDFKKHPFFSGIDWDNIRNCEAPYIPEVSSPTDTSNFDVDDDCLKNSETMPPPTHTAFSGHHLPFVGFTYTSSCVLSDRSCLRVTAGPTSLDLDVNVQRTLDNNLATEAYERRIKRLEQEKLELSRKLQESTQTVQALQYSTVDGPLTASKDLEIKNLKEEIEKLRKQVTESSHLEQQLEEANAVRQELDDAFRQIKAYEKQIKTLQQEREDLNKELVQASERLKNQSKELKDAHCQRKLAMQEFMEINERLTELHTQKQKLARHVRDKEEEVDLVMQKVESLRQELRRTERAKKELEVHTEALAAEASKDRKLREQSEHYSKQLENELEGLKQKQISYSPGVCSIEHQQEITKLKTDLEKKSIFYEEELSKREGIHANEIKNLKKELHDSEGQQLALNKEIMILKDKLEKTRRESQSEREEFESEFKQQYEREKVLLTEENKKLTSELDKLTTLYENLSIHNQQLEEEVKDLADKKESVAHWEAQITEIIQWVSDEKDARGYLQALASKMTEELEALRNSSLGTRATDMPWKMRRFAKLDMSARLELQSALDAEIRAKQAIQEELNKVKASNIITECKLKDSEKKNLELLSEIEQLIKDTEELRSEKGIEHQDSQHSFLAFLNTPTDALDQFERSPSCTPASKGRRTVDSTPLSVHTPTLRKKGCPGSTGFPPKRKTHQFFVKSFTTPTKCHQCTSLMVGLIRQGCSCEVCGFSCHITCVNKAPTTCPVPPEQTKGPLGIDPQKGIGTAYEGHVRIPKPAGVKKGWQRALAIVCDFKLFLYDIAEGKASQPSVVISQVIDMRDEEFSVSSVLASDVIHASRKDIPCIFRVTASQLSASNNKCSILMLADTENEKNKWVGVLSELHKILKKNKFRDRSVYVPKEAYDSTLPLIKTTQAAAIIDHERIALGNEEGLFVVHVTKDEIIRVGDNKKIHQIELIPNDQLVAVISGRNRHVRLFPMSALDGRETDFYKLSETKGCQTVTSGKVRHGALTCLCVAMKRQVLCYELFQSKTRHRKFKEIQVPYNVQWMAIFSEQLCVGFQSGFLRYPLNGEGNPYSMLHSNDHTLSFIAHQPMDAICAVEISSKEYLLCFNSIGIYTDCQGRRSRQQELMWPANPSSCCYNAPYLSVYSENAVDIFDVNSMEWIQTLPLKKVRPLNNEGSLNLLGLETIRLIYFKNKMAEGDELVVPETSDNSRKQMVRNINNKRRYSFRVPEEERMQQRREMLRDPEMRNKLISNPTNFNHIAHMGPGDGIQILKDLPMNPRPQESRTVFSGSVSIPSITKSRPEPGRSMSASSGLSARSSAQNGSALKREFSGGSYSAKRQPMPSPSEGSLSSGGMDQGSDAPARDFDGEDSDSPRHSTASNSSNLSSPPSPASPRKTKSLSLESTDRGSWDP

[6] = target: STK32B/YANK2 (Homo sapiens, UniProt Q9NY57); assay: biochemical; details: read-out: % enzyme activity, 1 μM; Run 1, Run 2
[7] = target: T2, DYRK4 (Homo sapiens, UniProt Q9NR20); assay: biochemical; details: read-out: % enzyme activity, 1 μM; Run 1, Run 2
T2 sequence (Q9NR20 1-520): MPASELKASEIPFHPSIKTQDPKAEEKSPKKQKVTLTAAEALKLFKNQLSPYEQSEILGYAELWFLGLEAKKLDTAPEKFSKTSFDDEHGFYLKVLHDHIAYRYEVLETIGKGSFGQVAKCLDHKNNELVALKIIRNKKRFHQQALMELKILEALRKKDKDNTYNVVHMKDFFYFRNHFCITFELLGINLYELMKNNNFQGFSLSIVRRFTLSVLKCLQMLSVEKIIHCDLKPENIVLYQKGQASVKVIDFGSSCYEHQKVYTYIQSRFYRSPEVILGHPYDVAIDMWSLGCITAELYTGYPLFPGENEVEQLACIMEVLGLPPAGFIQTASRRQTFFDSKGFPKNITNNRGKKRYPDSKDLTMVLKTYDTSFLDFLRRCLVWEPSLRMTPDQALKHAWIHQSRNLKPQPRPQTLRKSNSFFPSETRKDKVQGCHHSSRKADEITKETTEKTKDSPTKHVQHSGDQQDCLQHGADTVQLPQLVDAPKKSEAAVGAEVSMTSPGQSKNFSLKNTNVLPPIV

[8] = target: RET (Homo sapiens, UniProt P07949); assay: biochemical; details: read-out: % enzyme activity, 1 μM; Run 1, Run 2
[9] = target: T3, PKG2/PRKG2 (Homo sapiens, UniProt Q13237); details: 1 μM; Run 1, Run 2
T3 sequence (Q13237 1-762): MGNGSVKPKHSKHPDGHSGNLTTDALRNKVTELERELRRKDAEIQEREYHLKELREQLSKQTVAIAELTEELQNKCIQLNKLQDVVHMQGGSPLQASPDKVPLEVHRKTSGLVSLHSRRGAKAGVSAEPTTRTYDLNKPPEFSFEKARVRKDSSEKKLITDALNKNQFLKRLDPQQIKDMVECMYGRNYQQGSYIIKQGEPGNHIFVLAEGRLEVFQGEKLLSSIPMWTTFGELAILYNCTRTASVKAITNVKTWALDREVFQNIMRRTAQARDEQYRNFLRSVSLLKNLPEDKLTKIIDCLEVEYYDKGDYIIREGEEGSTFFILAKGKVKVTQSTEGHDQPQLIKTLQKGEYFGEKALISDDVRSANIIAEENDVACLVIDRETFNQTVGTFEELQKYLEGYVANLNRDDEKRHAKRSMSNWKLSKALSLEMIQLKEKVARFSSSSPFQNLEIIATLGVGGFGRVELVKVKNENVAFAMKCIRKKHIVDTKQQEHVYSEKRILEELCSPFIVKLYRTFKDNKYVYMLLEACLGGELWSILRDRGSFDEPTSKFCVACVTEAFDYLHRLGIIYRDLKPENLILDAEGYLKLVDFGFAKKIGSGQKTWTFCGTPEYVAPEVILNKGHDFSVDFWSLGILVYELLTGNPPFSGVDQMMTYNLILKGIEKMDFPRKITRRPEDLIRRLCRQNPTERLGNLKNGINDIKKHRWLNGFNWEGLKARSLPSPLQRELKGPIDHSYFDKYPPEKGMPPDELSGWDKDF

SMILES | % enzyme activity [1] | remaining activity at 1 µM [2] | % enzyme activity [3] | % enzyme activity [4] | remaining activity at 1 µM [5] | remaining activity at 1 µM [6] | remaining activity at 1 µM [7] | remaining activity at 1 µM [8] | % enzyme activity [9]
COc1cc(-c2cncc(-c3ccc(N4CCN(C)CC4)cc3)c2C)cc(F)c1C(N)=O [Compound 26a, 2-Fluoro-6-methoxy-4-(4-methyl-5-(4-(4-methylpiperazin-1-yl)phenyl)pyridin-3-yl)benzamide] | 70.28% | 99.2% | 97.00% | 106.15% | 103% | 87.6% | 103% | 94.4% | 97.48%
COc1cc(-c2cncc(-c3ccc(N4C[C@@H](C)N(C)[C@@H](C)C4)cc3)c2C)cc(F)c1C(N)=O [Compound 26c, 2-Fluoro-6-methoxy-4-(4-methyl-5-(4-((3R,5S)-3,4,5-trimethylpiperazin-1-yl)phenyl)pyridin-3-yl)benzamide] | 82.04% | 98.2% | 104.29% | 101.49% | 105% | 98.2% | 101% | 96% | 97.08%
